Source: patent publication US20040248913A1, “(Pyridinyl and pyrimidyl) trienoic acid derivatives as retinoid x receptor modulators” (priority 2001, published 2004)

Biological target: T1, RXRα:PPARγ heterodimer (Homo sapiens, UniProt P19793)
T1 construct: expressed in transfected cells; host or cells: CV-1 cells
T1 sequence (P19793 1-462): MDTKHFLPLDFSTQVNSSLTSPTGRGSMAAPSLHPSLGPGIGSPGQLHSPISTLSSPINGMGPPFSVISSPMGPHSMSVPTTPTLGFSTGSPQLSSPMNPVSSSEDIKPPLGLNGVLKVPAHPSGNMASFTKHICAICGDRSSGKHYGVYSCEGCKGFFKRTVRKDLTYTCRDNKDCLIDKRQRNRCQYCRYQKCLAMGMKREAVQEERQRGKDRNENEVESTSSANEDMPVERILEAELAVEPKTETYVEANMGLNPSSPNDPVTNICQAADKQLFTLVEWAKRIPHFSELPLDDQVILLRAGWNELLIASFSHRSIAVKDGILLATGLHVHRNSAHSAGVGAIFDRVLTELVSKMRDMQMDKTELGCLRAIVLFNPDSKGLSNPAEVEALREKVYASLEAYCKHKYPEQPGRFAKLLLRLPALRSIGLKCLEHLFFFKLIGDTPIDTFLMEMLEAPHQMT
T1 sequence (P37231 1-505 partner): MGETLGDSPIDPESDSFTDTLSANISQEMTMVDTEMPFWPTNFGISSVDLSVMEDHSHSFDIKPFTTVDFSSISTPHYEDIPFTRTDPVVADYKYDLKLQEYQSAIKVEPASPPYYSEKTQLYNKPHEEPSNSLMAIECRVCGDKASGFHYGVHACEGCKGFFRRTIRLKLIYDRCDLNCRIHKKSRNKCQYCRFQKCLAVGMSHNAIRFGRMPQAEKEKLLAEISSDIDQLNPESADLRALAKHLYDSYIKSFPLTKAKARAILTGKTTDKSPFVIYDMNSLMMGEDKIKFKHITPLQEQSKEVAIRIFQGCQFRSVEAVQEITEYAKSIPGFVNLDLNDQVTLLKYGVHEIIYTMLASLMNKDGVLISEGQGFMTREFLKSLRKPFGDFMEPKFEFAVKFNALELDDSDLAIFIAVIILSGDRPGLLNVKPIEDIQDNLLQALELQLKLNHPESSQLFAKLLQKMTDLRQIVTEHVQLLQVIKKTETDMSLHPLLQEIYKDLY
Test: RXR:PPARγ heterodimer cotransfection assay in CV-1 cells
Type: cell-based
Conditions: for Synergy Efficacy (%): maximal response in presence of 100 nM BRL49653 relative to response of BRL49653 alone; for Agonist Efficacy (%): maximal response relative to response of the thiazolidinedione BRL49653
Excerpt: In the co-transfection assay, cloned cDNA for one or more IRs (e.g., human RARα, RXRα, or PPARγ), alone or in combination (i.e. for heterodimer assays) under the control of a constitutive promoter (e.g., the SV 40, RSV or CMV promoter) is introduced by transfection (a procedure to introduce exogenous genes into cells) into a background cell substantially devoid of endogenous IRs. These introduced gene(s) direct the recipient cells to make the IR protein(s) of interest. A further gene is also introduced (co-transfected) into the same cells in conjunction with the IR gene(s). This further gene, comprising the cDNA for a reporter protein, such as firefly luciferase (LUC), controlled by an appropriate hormone responsive promoter containing a hormone response element (HRE). This reporter plasmid functions as a reporter for the transcriptional-modulating activity of the target IR(s). Thus, the reporter acts as a surrogate for the products (mRNA then protein) normally expressed by a gene under control of the target receptor(s) and their native hormone(s).
The compounds of the present invention were further tested for activity on RXR heterodimers with RARα, RARγ or PPARγ utilizing the cotransfection assay in CV-1 cells as described in Example 6A. The RXR:RAR heterodimer cotransfection assays utilized the following expression plasmids and reporter plasmid: pRShRARα (10 ng/well, Giguere et al., Nature, 330:624 (1987) the disclosure of which is herein incorporated by reference) or pRShRARγ (10 ng/well, Ishikawa et al., Mol. Endocrin., 4:837 (1990) the disclosure of which is herein incorporated by reference) with Δ-MTV-LUC (50 ng/well, Hollenberg and Evans, Cell, 55:899 (1988), the disclosure of which is herein incorporated by reference) containing an RARE which is referred to as two copies of the TRE-palindromic response element described in Umesono et al., Nature, 336:262 (1988), the disclosure of which is herein incorporated by reference. For the RSR:PPARγ heterodimer cotransfection assay, the RXRα receptor expression plasmid, pRShRXRα (10 ng/well), was cotrasfected with the PPARγ expression plasmid, pCMVhPPARγ (10 ng/well), and a reporter plasmid containing three copies of a PPARγ response element (pPREA3-tk-LUC, 50 ng/well; Mukherjee et al., Journ. Biol. Chem., 272:8071-8076 (1997) and references cited therein, the disclosures of which are herein incorporated by reference).
Cotransfections were performed as described in Example 6A. […] Antagonist efficacy and IC50 values were determined as in Example 6A.
Compounds of the present invention were also tested for the ability to synergize with an RAR or PPARγ agonist in the context of an RXR heterodimer. For these assays the compounds were added to the cells with a fixed concentration of TTNPB (1×10^−9 M) for RXR:RAR heterodimer assay or BRL 49633 (1×10^−7 M) for the RXR:PPARγ heterodimer assay. Efficacy of the compounds of the present invention in the agonist and synergy assays was calculated as the maximum response obtained over the range of the dose response curve relative to the maximum response obtained by the reference agonist. Antagonist efficacy was determined as a function (%) of maximal inhibition.
Kliewer et al., Nature 358:771-774 (1992). To examine the effects of the compounds of the present invention on the transcriptional properties of the RXR:PPARγ, a heterodimer cotransfection assay as described above was employed.

Synergy Efficacy (%)	Agonist Efficacy (%)	Compound	RXR:PPARγ agonist activity alone (in words) (alone)	RXR:PPARγ activity in combination with the PPARγ ligand (in words) (in combination with the PPARγ ligand)
233%	53%	C/C(=C/C=C/C(C)=C/C(=O)O)c1cc(C(C)C)nc(C(C)C)c1OCC(F)F [Example 4, 7-[3-(2,2-Difluoro-ethoxy)-2,6-diisopropyl-pyridin-4-yl]-3-methyl-octa-2(E),4(E),6(Z)-trienoic acid]		
182%	42%	CCOc1c(\C(C)=C/C=C/C(C)=C/C(=O)O)cc(C(C)C)nc1C(C)C [Example 3, 7-(2,6-Diisopropyl-3-ethoxy-pyridin-4-yl)-3-methyl-octa-2(E),4(E),6(Z)-trienoic acid]		
107%	55%	C/C(=C/C=C/C(C)=C/C(=O)O)c1cc(C(C)C)nc(C(C)C)c1OCC(F)(F)F [Example 5, 7-[2,6-Diisopropyl-3-(2,2,2-trifluoro-ethoxy)-pyridin-4-yl]-3-methyl-octa-2(E),4(E),6(Z)-trienoic acid]		

Further lines, the compound ahead of its results:

Compound	Synergy Efficacy (%)	Agonist Efficacy (%)	RXR:PPARγ agonist activity alone (in words) (alone)	RXR:PPARγ activity in combination with the PPARγ ligand (in words) (in combination with the PPARγ ligand)
CCCOc1c(\C(C)=C/C=C/C(C)=C/C(=O)O)cc(C(C)C)nc1C(C)C [Example 2, 7-(2,6-Diisopropyl-3-propoxy-pyridin-4-yl)-3-methyl-octa-2(E),4(E),6(Z)-trienoic Acid]	150%	32%		
CCCCOc1c(\C(C)=C/C=C/C(C)=C/C(=O)O)cc(C(C)C)nc1C(C)C [Example 1, 7-(3-Butoxy-2,6-diisopropyl-pyridin-4-yl)-3-methyl-octa-2(E),4(E),6(Z)-trienoic Acid]	25%	11%	partial agonists	stronger activity
